# Results published in patent US20230147040A1, “METHOD FOR PROGNOSIS PREDICTION OF SKIN CANCER AND USE THEREOF” (PUBLIC UNIVERSITY CORPORATION NAGOYA CITY UNIVERSITY, priority 2020, published 2023).
# Assays:
# Assay type in all cases: in vivo
# Merkel cell carcinoma = experiment: Clinical course of Merkel cell carcinoma cases under treatment
# cutaneous angiosarcoma = experiment: Clinical course of cutaneous angiosarcoma cases under treatment; settings: primary lesion in the head
# G6PD = G6PD activity in patient serum (G6PD assay kit); settings: Case 4, avelumab and IMRT in combination
# Method: For 50 patient serum specimens of 19 cases, the G6PD activity was measured using a G6PD assay kit (Abeam, ab102529). The average activity value of the 50 specimens was 11.45 mU/ml.
# The course of Merkel cell carcinoma was confirmed for the cases (Case 1 to 3) of 3 specimens having a particularly high G6PD activity (19 mU/ml or more) among the 50 specimens. In addition, the course of Merkel cell carcinoma was confirmed for a case (Case 4) having a decreased G6PD activity. In FIGS. 6 to 8 shown below, the vertical axis represents the G6PD activity (mU/ml), and the horizontal axis represents the period.
# [1] = Case B, wPTX, then changed to eribulin
molecule,measurement,setting,value
COc1cc([C@@H]2c3cc4c(cc3[C@@H](O[C@@H]3O[C@@H]5CO[C@@H](C)O[C@H]5[C@H](O)[C@H]3O)[C@H]3COC(=O)[C@H]23)OCO4)cc(OC)c1O [VP-16],therapeutic effect,"Merkel cell carcinoma; Case 1, stage IV, systemic lymph node metastasis after surgical resection and radiation therapy, combination therapy of CBDGB and VP-16",no therapeutic effect was observed
C=C1C[C@@H]2CC[C@@]34C[C@H]5O[C@H]6[C@@H](O3)[C@H]3O[C@H](CC[C@@H]3O[C@H]6[C@H]5O4)CC(=O)C[C@@H]3[C@@H](OC)[C@@H](C[C@H](O)CN)O[C@H]3C[C@H]3O[C@@H](CC[C@@H]1O2)C[C@@H](C)C3=C [eribulin],clinical course,cutaneous angiosarcoma; [1],pneumothorax (PD) was developed
CC(=O)O[C@@]12CO[C@@H]1C[C@H](O)[C@@]1(C)C(=O)[C@H](O)C3=C(C)[C@@H](OC(=O)[C@H](O)[C@@H](NC(=O)OC(C)(C)C)c4ccccc4)C[C@@](O)([C@@H](OC(=O)c4ccccc4)[C@H]21)C3(C)C [wDTX],clinical course,"cutaneous angiosarcoma; Case C, upon administration of wDTX",pneumothorax was developed
avelumab,clinical outcome,"Merkel cell carcinoma; Case 1, stage IV, trial of avelumab after failed combination chemotherapy",death of current disease was caused after several months
same,PET/CT accumulation in right submandibular lymph node,"Merkel cell carcinoma; Case 4, stage III, avelumab alone, after 3 months",enhancement of the accumulation was observed
same,clinical outcome,"Merkel cell carcinoma; Case 4, stage III, avelumab in combination with IMRT",complete remission (CR)
same,G6PD activity,G6PD,significantly reduced
CC(=O)O[C@H]1C(=O)[C@@]2(C)[C@H]([C@H](OC(=O)c3ccccc3)[C@]3(O)C[C@H](OC(=O)[C@H](O)[C@@H](NC(=O)c4ccccc4)c4ccccc4)C(C)=C1C3(C)C)[C@]1(OC(C)=O)CO[C@@H]1C[C@@H]2O [wPTX],clinical course,"cutaneous angiosarcoma; Case A, wPTX therapy and radiation therapy",the performance status (PS) deteriorated
same,clinical course,cutaneous angiosarcoma; [1],parotid lymph node metastasis was observed
